This test concerns the target T1, Hsp90α N-terminal domain (Hsp90N) (Homo sapiens, UniProt P07900).
T1 construct: gene HSP90AA1
Briefly: competition binding by real-time in-cell […] NMR against spy ligand […] (Kd back-calculated). The format is cell-based.

As for `CCNC(=O)c1cc2c(-c3cc(OCCN(CC)CC)c(Cl)cc3Cl)nc(N)nc2s1` [compound 5], the Kd was 0.6 ± 0.1 nM.

(Values after publication PMC10823471, “Ligand-Based Competition Binding by Real-Time ^19F NMR in Human Cells” (Journal of Medicinal Chemistry, 2024).)
